How the values were obtained:
[1] = biological target: GDP-bound NRAS wild-type protein (Homo sapiens, UniProt P01111); experiment: Binding to NRAS by surface plasmon resonance (SPR), Single Cycle Kinetics; details: KD ratio, GDP-bound NRAS wild-type vs GDP-bound KRAS wild-type, SPR
[2] = biological target: GDP-bound HRAS wild-type protein (Homo sapiens, UniProt P01112); experiment: Binding to HRAS by surface plasmon resonance (SPR), Single Cycle Kinetics; details: KD ratio, GDP-bound HRAS wild-type vs GDP-bound KRAS wild-type, SPR
Sequence of GDP-bound HRAS wild-type protein (P01112 whole entry): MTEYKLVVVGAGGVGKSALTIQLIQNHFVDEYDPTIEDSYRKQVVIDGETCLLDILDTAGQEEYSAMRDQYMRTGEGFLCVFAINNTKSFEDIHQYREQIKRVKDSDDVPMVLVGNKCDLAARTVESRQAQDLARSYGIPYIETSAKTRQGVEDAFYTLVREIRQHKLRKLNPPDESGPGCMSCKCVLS

Sequence of GDP-bound NRAS wild-type protein (P01111 whole entry): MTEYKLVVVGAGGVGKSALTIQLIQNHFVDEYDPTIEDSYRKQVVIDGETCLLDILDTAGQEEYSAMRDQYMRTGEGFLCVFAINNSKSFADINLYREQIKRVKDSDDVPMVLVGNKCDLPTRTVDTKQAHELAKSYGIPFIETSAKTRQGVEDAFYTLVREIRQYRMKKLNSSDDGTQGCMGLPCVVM

| SMILES | NRAS/KRAS (ratio of KD value with respect to NRAS to KD value with respect to KRAS) [1] | HRAS/KRAS (ratio of KD value with respect to HRAS to KD value with respect to KRAS) [2] |
| --- | --- | --- |
| CC[C@H](C)[C@@H]1NC(=O)[C@H](CC(C)C)N(C)C(=O)C[C@@H](C(=O)N(C)C)N(CCC2CCCC2)C(=O)[C@H](C2CCCC2)N(C)C(=O)C2(CCC2)NC(=O)[C@@H]2CC(F)(F)CN2C(=O)[C@H](CCc2ccc(C(F)(F)F)c(Cl)c2)NC(=O)CN(C)C(=O)[C@H](Cc2ccc(F)cc2)N2CCCCC[C@@H](C2=O)N(C)C(=O)CN(C)C1=O [PP0977] | B (a compound having 3 or more and less than 10 is denoted as B) | A (a compound having 10 or more and less than 20 is denoted as A) |
| CCO[C@@H]1C[C@H]2C(=O)NC3(CCC3)C(=O)N(C)[C@@H](C3CCCC3)C(=O)N(C)[C@H](C(=O)N(C)C)CC(=O)N(C)[C@@H](CC)C(=O)N[C@@H]([C@@H](C)CC)C(=O)N(C)CC(=O)N(C)[C@H]3C/C=C\CCN(C3=O)[C@@H](Cc3ccc(C(F)(F)F)cc3)C(=O)N(C)CC(=O)N[C@@H](CCc3ccc(C(F)(F)F)c(Cl)c3)C(=O)N2C1 [PP0978] | A (a compound having 10 or more and less than 20 is denoted as A) | B (a compound having 3 or more and less than 10 is denoted as B) |
| CCO[C@@H]1C[C@H]2C(=O)NC3(CCC3)C(=O)N(C)[C@@H](C3CCCC3)C(=O)N(CC)[C@H](C(=O)N3CCOCC3)CC(=O)N(C)[C@@H](CC)C(=O)N[C@@H]([C@@H](C)CC)C(=O)N(C)CC(=O)N(C)[C@H]3C/C=C\CCN(C3=O)[C@@H](Cc3ccc(C(F)(F)F)cc3)C(=O)N(C)CC(=O)N[C@@H](CCc3cc(F)c(C(F)(F)F)c(F)c3)C(=O)N2C1 [PP0979] | AA (a compound having 20 or more is denoted as AA) | A (a compound having 10 or more and less than 20 is denoted as A) |
| CCO[C@@H]1C[C@H]2C(=O)NC3(CCC3)C(=O)N(C)[C@@H](C3CCCC3)C(=O)N(CC)[C@H](C(=O)N(C)C)CC(=O)N(C)[C@@H](CC)C(=O)N[C@@H]([C@@H](C)CC)C(=O)N(C)CC(=O)N(C)[C@H]3C/C=C\CCN(C3=O)[C@@H](Cc3ccc(C(F)(F)F)cc3)C(=O)N(C)CC(=O)N[C@@H](CCc3cc(F)c(C(F)(F)F)c(F)c3)C(=O)N2C1 [PP0980] | A (a compound having 10 or more and less than 20 is denoted as A) | B (a compound having 3 or more and less than 10 is denoted as B) |
| CCO[C@@H]1C[C@H]2C(=O)NC3(CCC3)C(=O)N(C)[C@@H](C3CCCC3)C(=O)N(CCC3CCCC3)[C@H](C(=O)N3CCOCC3)CC(=O)N(C)[C@@H](CC)C(=O)N[C@@H]([C@@H](C)CC)C(=O)N(C)CC(=O)N(C)[C@H]3C/C=C\CCN(C3=O)[C@@H](Cc3ccc(C(F)(F)F)cc3)C(=O)N(C)CC(=O)N[C@@H](CCc3cc(F)c(C(F)(F)F)c(F)c3)C(=O)N2C1 [PP0981] | AA (a compound having 20 or more is denoted as AA) | A (a compound having 10 or more and less than 20 is denoted as A) |
| CCO[C@@H]1C[C@H]2C(=O)NC3(CCC3)C(=O)N(C)[C@@H](C3CCCC3)C(=O)N(CCC3CCCC3)[C@H](C(=O)N(C)C)CC(=O)N(C)[C@@H](CC)C(=O)N[C@@H]([C@@H](C)CC)C(=O)N(C)CC(=O)N(C)[C@H]3C/C=C\CCN(C3=O)[C@@H](Cc3ccc(C(F)(F)F)cc3)C(=O)N(C)CC(=O)N[C@@H](CCc3cc(F)c(C(F)(F)F)c(F)c3)C(=O)N2C1 [PP0982] | AA (a compound having 20 or more is denoted as AA) | A (a compound having 10 or more and less than 20 is denoted as A) |
| CCO[C@@H]1C[C@H]2C(=O)NC3(CCC3)C(=O)N(C)[C@@H](C3CCCC3)C(=O)N(C)[C@H](C(=O)N(C)C)CC(=O)N(C)[C@@H](CC)C(=O)N[C@@H]([C@@H](C)CC)C(=O)NCC(=O)N(C)[C@H]3C/C=C\CCN(C3=O)[C@@H](Cc3ccc(C(F)(F)F)cc3)C(=O)N(C)CC(=O)N[C@@H](CCc3cc(F)c(C(F)(F)F)c(F)c3)C(=O)N2C1 [PP0983] | A (a compound having 10 or more and less than 20 is denoted as A) | A (a compound having 10 or more and less than 20 is denoted as A) |
| CCO[C@@H]1C[C@H]2C(=O)NC3(CCC3)C(=O)N(C)[C@@H](C3CCCC3)C(=O)N(C)[C@H](C(=O)N(C)C)CC(=O)N(C)[C@@H](CC)C(=O)N[C@@H]([C@@H](C)CC)C(=O)N3CC[C@H]3C(=O)N(C)[C@H]3C/C=C\CCN(C3=O)[C@@H](Cc3ccc(C(F)(F)F)cc3)C(=O)N(C)CC(=O)N[C@@H](CCc3cc(F)c(C(F)(F)F)c(F)c3)C(=O)N2C1 [PP0984] | A (a compound having 10 or more and less than 20 is denoted as A) | A (a compound having 10 or more and less than 20 is denoted as A) |
| CCO[C@@H]1C[C@H]2C(=O)NC3(CCC3)C(=O)N(C)[C@@H](C3CCCC3)C(=O)N(C)[C@H](C(=O)N(C)C)CC(=O)N(C)[C@@H](CC)C(=O)N[C@@H]([C@@H](C)CC)C(=O)N(C)CC(=O)N(C)[C@H]3CCCCN(C3=O)[C@@H](Cc3ccc(C(F)(F)F)cc3)C(=O)N(C)CC(=O)N[C@@H](CCc3cc(Cl)c(C(F)(F)F)c(Cl)c3)C(=O)N2C1 [PP0985] | C (A compound having a KD ratio of 0.1 or more and less than 3 is denoted as C) | C (A compound having a KD ratio of 0.1 or more and less than 3 is denoted as C) |
| CCO[C@@H]1C[C@H]2C(=O)NC3(CCC3)C(=O)N(C)[C@@H](C3CCCC3)C(=O)N(C)[C@H](C(=O)N(C)C)CC(=O)N(C)[C@@H](CC)C(=O)N[C@@H]([C@@H](C)CC)C(=O)N(C)CC(=O)N(C)[C@H]3CCCCN(C3=O)[C@@H](Cc3ccc(C(F)(F)F)cc3)C(=O)N(C)CC(=O)N[C@@H](CCc3ccc(OC(F)F)c(F)c3)C(=O)N2C1 [PP0986] | C (A compound having a KD ratio of 0.1 or more and less than 3 is denoted as C) | C (A compound having a KD ratio of 0.1 or more and less than 3 is denoted as C) |
| CCO[C@@H]1C[C@H]2C(=O)NC3(CCC3)C(=O)N(C)[C@@H](C3CCCC3)C(=O)N(C)[C@H](C(=O)N(C)C)CC(=O)N(C)[C@@H](CC)C(=O)N[C@@H]([C@@H](C)CC)C(=O)N(C)CC(=O)N(C)[C@H]3CCCCN(C3=O)[C@@H](Cc3ccc(C(F)(F)F)cc3)C(=O)N(C)CC(=O)N[C@@H](CCc3ccc(Cl)c(Cl)c3)C(=O)N2C1 [PP0987] | C (A compound having a KD ratio of 0.1 or more and less than 3 is denoted as C) | C (A compound having a KD ratio of 0.1 or more and less than 3 is denoted as C) |
| CCO[C@@H]1C[C@H]2C(=O)NC3(CCC3)C(=O)N(C)[C@@H](C3CCCC3)C(=O)N(C)[C@H](C(=O)N(C)C)CC(=O)N(C)[C@@H](CC)C(=O)N[C@@H]([C@@H](C)CC)C(=O)N(C)CC(=O)N(C)[C@H]3CCCCN(C3=O)[C@@H](Cc3ccc(C(F)(F)F)cc3)C(=O)N(C)CC(=O)N[C@@H](CCc3cc(Cl)c(Cl)c(Cl)c3)C(=O)N2C1 [PP0988] | C (A compound having a KD ratio of 0.1 or more and less than 3 is denoted as C) | B (a compound having 3 or more and less than 10 is denoted as B) |
| CCO[C@@H]1C[C@H]2C(=O)NC3(CCC3)C(=O)N(C)[C@@H](C3CCCC3)C(=O)N(C)[C@H](C(=O)N(C)C)CC(=O)N(C)[C@@H](CC)C(=O)N[C@@H]([C@@H](C)CC)C(=O)N(C)CC(=O)N(C)[C@H]3CCCCCN(C3=O)[C@@H](Cc3ccc(C(F)(F)F)cc3)C(=O)N(C)CC(=O)N[C@@H](CCc3cc(Cl)c(C(F)(F)F)c(Cl)c3)C(=O)N2C1 [PP0989] | B (a compound having 3 or more and less than 10 is denoted as B) | B (a compound having 3 or more and less than 10 is denoted as B) |
| CCO[C@@H]1C[C@H]2C(=O)N[C@]3(C)CCCCCC[C@@H](C(=O)N[C@@H]([C@@H](C)CC)C(=O)N(C)CC(=O)N(C)[C@H]4CCCCN(C4=O)[C@@H](Cc4ccc(C(F)(F)F)cc4)C(=O)N(C)CC(=O)N[C@@H](CCc4cc(F)c(C(F)(F)F)c(F)c4)C(=O)N2C1)N(C)C(=O)C[C@@H](C(=O)N1CCOCC1)N(C)C(=O)[C@H](C1CCCC1)N(C)C3=O [PP0992] | B (a compound having 3 or more and less than 10 is denoted as B) | B (a compound having 3 or more and less than 10 is denoted as B) |
| CCO[C@@H]1C[C@H]2C(=O)N[C@@]3(C)CCCCCCC[C@@H](C(=O)N[C@@H]([C@@H](C)CC)C(=O)N(C)CC(=O)N(C)[C@H]4CCCCN(C4=O)[C@@H](Cc4ccc(C(F)(F)F)cc4)C(=O)N(C)CC(=O)N[C@@H](CCc4cc(F)c(C(F)(F)F)c(F)c4)C(=O)N2C1)N(C)C(=O)C[C@@H](C(=O)N1CCOCC1)N(C)C(=O)[C@H](C1CCCC1)N(C)C3=O [PP0993] | B (a compound having 3 or more and less than 10 is denoted as B) | B (a compound having 3 or more and less than 10 is denoted as B) |
| CCCCO[C@@H]1C[C@H]2C(=O)NC3(CCC3)C(=O)N(C)[C@@H](C3CCCC3)C(=O)N(C)[C@H](C(=O)N3CCOCC3)CC(=O)N(C)[C@@H](CC(C)C)C(=O)N[C@@H]([C@@H](C)CC)C(=O)N(C)CC(=O)N(C)[C@H]3CCCCN(C3=O)[C@@H](Cc3ccc(C(F)(F)F)cc3)C(=O)N(C)CC(=O)N[C@@H](CCc3cc(F)c(C(F)(F)F)c(F)c3)C(=O)N2C1 [PP0999] | C (A compound having a KD ratio of 0.1 or more and less than 3 is denoted as C) | B (a compound having 3 or more and less than 10 is denoted as B) |

— patent US20250230193A1, “CYCLIC COMPOUND HAVING SELECTIVE KRAS INHIBITORY EFFECT ON HRAS AND NRAS” (CHUGAI SEIYAKU KABUSHIKI KAISHA, priority 2022, published 2025)
